Columns and labels:
TAR RNA [1] = experiment: Gel-shift binding to TAR RNA; parameters: species or system HIV-1
Experimental: (§1) The model Tat peptide (R52: […]) was prepared by the Weizmann Institute Chemical Services and was purified by reverse phase HPLC (C-18) (Lapidot et al., 1995). […] The RNA was transcriptionally labeled with α-^32P UTP, purified on a 12% polyacrylamide/7M urea gel (19:1 acrylamide:bis-acrylamide) and was eluted from the gel by 0.5M ammonium acetate, 10 mM magnesium acetate, 1 mM EDTA and 0.1% SDS. The sample was subjected to phenol extraction and the RNA was precipitated from 70% ethanol. Purified RNA was dissolved in diethyl pyrocarbonate-treated water (DEPC water), its concentration was determined by UV absorption at 260 nm and the specific radioactivity was determined by scintillation counting on a LS 1701 “Bruker” counter.
To study the affinity of the test compounds to TAR, gel-shift and gel-shift inhibition experiments were performed. The binding reaction mixtures (20 μl) contained ^32P-labeled TAR (18-44) RNA oligonucleotide (3-6 nM) and Tat R52 peptide (35-75 nM) in a binding buffer (10 mM Tris-HCl pH 7.5, 70 mM NaCl, 0.2 mM EDTA and 5% glycerol). The reaction mixtures were incubated for 10 minutes on ice and resolved by electrophoresis on a 10% non-denaturing polyacrylamide gel (40:1 acrylamide:bis-acrylamide) at 200V, for 3 h at 4° C. Gels were dried and visualized by autoradiography. Quantitations were obtained by optical densitometry of films. Alternatively, results were visualized by exposing the wet gels to Fuji phosphoimager plates, which were read on a “Storm 820” (Molecular Dynamics) phosphoimager. […]
Binding of aminoglycoside-arginine conjugates (AAC) to TAR RNA was measured by adding varying concentrations of each conjugate to reaction mixtures (20 μl) which contained 12 nM ^32P-labeled TAR RNA. The reactions were analyzed as described above.

TAR RNA [2] = experiment: RNase A footprinting of TAR RNA; type: binding, HIV-1
Experimental: In a typical experiment 10 μl of 5 mM cacodylate buffer pH 6.5, containing 25 mM KCl and 50-100 ng 5′ ^32P-labeled TAR RNA (approximately 0.5-1 μM) were incubated with 200 pM RNase A (Sigma) at room temperature for 10 minutes in the presence of Tat R52 and the conjugates of the invention at various concentrations. In the competition experiments, the mixture was supplemented with 0.5 μg yeast tRNA (Sigma). After the incubation, 10 μl of formamide/bromphenol blue loading buffer was added to the samples. The samples were heated to 80° C. for 2 min and were resolved by electrophoresis on 40 cm×0.8 mm 20% polyacrylamide denaturing gel (7M urea) for 3 hours at 55° C. The results were visualized by a phosphoimager as described above and quantitated using ImageQuant software.
TAR RNA and RNase A concentrations were established by co-titration. To produce a “single-hit” kinetics conditions, 1 μM TAR versus 200 pM RNase A were selected. Tat R52 and AAC concentrations were determined by titration. […] RNase A cleaved TAR RNA in an uneven manner (FIG. 4A., lane 2). The most susceptible regions for cleavage were the single-stranded loop, nucleotides U31-G34 as well as C24 and U25 of the bulge. Strong cleavage was also observed at G21-G41 and A20-U42 pairs (lower stem). Binding of R52 (2-4 μM) caused a weakening of the bands in the upper stem region, (G26-C39, A27-C38, as well as U40) (FIG. 4A., lanes 3, 4). At 4 μM R52, the cleavage at G34 (loop) was enhanced, as well as a certain enhancement of bands A20, G21, U23 and U25 was observed. Remarkably, the band corresponding to the R52-TAR complex still was observed on the gels even after electrophoresis under strongly denaturing conditions. In the presence of R4K (10-20 μM), the upper stem (G26-C29), the lower stem and the bulge (G21-U23, partially C24 and U25) were protected as well as C38, C39 and U40. Cleavage at C19 and A20 of the lower stem and C30, G33 and G34 of the loop was enhanced by 10 μM R4K, whereas with 20 μM R4K the protection of C30, G34 and A20-G21 was observed (FIG. 4A., lanes 5, 6). […] Cleavages at C19-A20 in the lower stem as well as at G30 and G34 in the loop were observed (FIG. 4A., lanes 7, 8). In the presence of GB4K (20 μM) no significant protection was observed.

[3] = system: equine infectious anemia virus (EIAV); experiment: Antiviral activity in EIAV-infected ED fibroblasts; type: cell-based; conditions: 100-250 μM
Experimental: Both equine dermal fibroblasts (ED) and Equine Infectious Anemia Virus (EIAV), Wyoming isolate (Malmquist et al., 1973) were gifts from Profs. A. Yaniv and A. Gazit, from the Sackler Medical School of the Tel-Aviv University, Israel. ED cells were plated on plastic 6-well tissue culture plates (Nunclone) at density of […] per well in 2 ml of DMEM/10% FCS (fetal calf serum). The medium was removed after 12-20 hours and the cells were inoculated for 2 hours with 0.5 ml DMEM/10% FCS containing 5×10^6 pfu (plaque forming units) of EIAV and 10 μg/ml of polybrene (hexadimetrine bromide, Sigma) (Carpenter and Chesebro, 1989). Following the incubation, another 2.5 ml of DMEM/10% FCS was added to each well. […] Every […], 1.2 ml samples of the medium were collected and replaced with same amount of medium, containing radioactive uridine and the tested. The samples were clarified from cell debris by spinning at 12000 rpm for 5 minutes on the Eppendorf centrifuge. Viral particles from the clarified supernatants were collected by ultracentrifugation at 75000 rpm, 4° C. on the Beckman TL 100 centrifuge using TLA 100.2 rotor (Cheevers et al., 1977). The supernatants were carefully discarded and the pellet was resuspended in 200 μl of 1% SDS/5% Tritone X-100, mixed with 1 ml Ultima Gold scintillation liquid (Packard) and counted on LS 1701 Bruker scintillation counter. Typical duration of the experiment was 15 days; EIAV growth curves in the presence of various concentrations of the conjugates in the medium were obtained. Development of the cytopathic effect (cpe) in the infected ED cells was monitored by light microscopy.
Equine infectious anemia virus (EIAV) of Wyoming strain is adapted to grow in equine dermal fibroblasts (ED), without damaging them with a titer of 1 μfu per cell (Malmquist virus). […] In the absence of inhibitors, EIAV proliferated in the ED cells reaching a plato 9-12 days after infection (FIG. 8). […] Development of cpe started 10-12 days after infection, reaching a maximum on days 15-17, followed by rapid cell death and exfoliation from the plastic bottom of the well.

TAR RNA [4] = experiment: L-arginine-Amberlite affinity column elution of TAR RNA; type: binding, HIV-1; conditions: concentration that elutes 50% of TAR RNA from L-arginine-Amberlite affinity column
Experimental: as §1
The L-arginine-Amberlite resin was prepared as follows: Carboxyl groups of Amberlite IRC-50 resin were covalently modified with ethanolamine using 1-(3-dimethylaminopropyl) 3-ethylcarbodiimide, a water-soluble coupler. The hydroxy ethyleneamide resin obtained was washed and dried, and L-arginine (12-16 μmols per ml of resin) was coupled to the hydroxy groups of the resin via an isourea moiety using a standard cyanogen bromide protocol. The final concentration of arginine residues was 12-16 μmol per ml of resin. The swollen L-arginino-Amberlite resin (200 μl) was packed into a plastic mini-column and equilibrated with buffer containing 40 mM Tris HCl, pH 7.5, 250 mM NaCl, 0.5 mM EDTA and 5 mM MgCl2 (buffer A). Approximately 1 ng of ^32P-UTP labeled TAR RNA in buffer A was loaded on the column. The column was eluted 3 to 5 times with 400 μl portions of buffer A, until no radioactivity was detected in the eluent. […] Each of the test compounds was dissolved in buffer A and passed through the column in 300 μl portions. Radioactivity of the eluates was determined by scintillation counting on a LS 1701 “Bruker” counter. CE50 values, the concentrations of inhibitors eluting 50% of the radioactive material from the column, were determined.

Tat-TAR interaction = experiment: Gel-shift inhibition of Tat R52 peptide binding to TAR RNA; parameters: species or system HIV-1; conditions: for Ki: CI50 normalized to the conditions of Tao and Frankel, 1992, read-out: apparent Ki; for IC50: TAR RNA 6 nM, 60 nM Tat R52, read-out: CI50 (the source's name)
Experimental: The model Tat peptide (R52: […]) was prepared by the Weizmann Institute Chemical Services and was purified by reverse phase HPLC (C-18) (Lapidot et al., 1995). A 31-nt TAR RNA fragment (5′-GGCCAGAUCUGAGCCUGGGAGCUCUCUGGCC-3′) containing the sequence 18-44 of the HIV LTR (Aboul-Ela et al., 1995) was transcribed in vitro by T7 RNA polymerase (Promega) from a synthetic single strand DNA template containing the 17 base double-stranded T7 promoter (both DNA oligonucleotides were prepared by the Weizmann Institute Chemical Services). The RNA was transcriptionally labeled with α-^32P UTP, purified on a 12% polyacrylamide/7M urea gel (19:1 acrylamide:bis-acrylamide) and was eluted from the gel by 0.5M ammonium acetate, 10 mM magnesium acetate, 1 mM EDTA and 0.1% SDS. The sample was subjected to phenol extraction and the RNA was precipitated from 70% ethanol. Purified RNA was dissolved in diethyl pyrocarbonate-treated water (DEPC water), its concentration was determined by UV absorption at 260 nm and the specific radioactivity was determined by scintillation counting on a LS 1701 “Bruker” counter.
To study the affinity of the test compounds to TAR, gel-shift and gel-shift inhibition experiments were performed. The binding reaction mixtures (20 μl) contained ^32P-labeled TAR (18-44) RNA oligonucleotide (3-6 nM) and Tat R52 peptide (35-75 nM) in a binding buffer (10 mM Tris-HCl pH 7.5, 70 mM NaCl, 0.2 mM EDTA and 5% glycerol). The reaction mixtures were incubated for 10 minutes on ice and resolved by electrophoresis on a 10% non-denaturing polyacrylamide gel (40:1 acrylamide:bis-acrylamide) at 200V, for 3 h at 4° C. Gels were dried and visualized by autoradiography. Quantitations were obtained by optical densitometry of films. Alternatively, results were visualized by exposing the wet gels to Fuji phosphoimager plates, which were read on a “Storm 820” (Molecular Dynamics) phosphoimager. Different concentrations of TAR RNA (6,12 and 20 nM) were titrated with various concentrations of Tat R52 in the binding reactions.
Binding inhibition by the monosaccharide derivatives was measured by adding several concentrations of each compound to reaction mixtures containing 60 nM Tat 52 and 6 nM ^32P TAR, attaining 100% binding of Tat TAR in the absence of inhibitors (Lapidot et al., 1995).

HIV-1 NL4-3 = experiment: Virus-binding assay, p24 antigen bound to MT-4 cells; type: cell-based; conditions: 1 hour at 37° C.; dose dependent
Experimental: MT4 cells (5×10^5) were incubated with supernatant containing 1×10^5 pg of p24 antigen of wild type HIV-1 in the presence of different concentrations of the test compound. One hour after infection, cells were washed 3 times with PBS and p24 antigen bound to the cells was determined by a commercial ELISA test (Coulter, Spain).

Row | Compound | CE50 (TAR RNA [4]) [mM] | Ki (Tat-TAR interaction) [µM] | IC50 (Tat-TAR interaction) [µM] | other results
1 | N=C(N)NCCCC(=O)NC[C@H]1O[C@H](O[C@H]2[C@H](O)[C@@H](O[C@H]3O[C@H](CO)[C@@H](O)[C@H](NC(=O)CCCNC(=N)N)[C@H]3O)[C@H](NC(=O)CCCNC(=N)N)C[C@@H]2NC(=O)CCCNC(=N)N)[C@H](O)[C@@H](O)[C@@H]1O [GB4K, Tetra-γ-(N-guanidino)butyramido-kanamycin A conjugate] | – | – | – | binding to TAR RNA in gel-shift experiments (TAR RNA [1]; up to 50 μM): did not exhibit binding; binding to TAR RNA in protection experiments (TAR RNA [2]; at 40 μM): did not exhibit binding; TAR RNA binding, overall assessment (TAR RNA [2]; footprinting studies): very weak TAR RNA binder; effect on the viral growth [3]: did not show any effect
2 | CN[C@@H]1[C@@H](O)[C@@H](O[C@@H]2[C@@H](O)[C@H](O[C@H]3O[C@H](CNC(=O)[C@@H](N)CCCNC(=N)N)CC[C@H]3NC(=O)[C@@H](N)CCCNC(=N)N)[C@@H](NC(=O)[C@@H](N)CCCNC(=N)N)C[C@H]2NC(=O)[C@@H](N)CCCNC(=N)N)OC[C@]1(C)O [R4GC1a, Tetraargininamido-gentamicin (C1a) conjugate] | – | – | – | concentration from which a complex with TAR RNA is formed (TAR RNA [1]; 20 nM TAR RNA): ≥ 200 nM; CD50 (TAR RNA [1]; 50% binding, TAR RNA 20 nM): 200 nM; Kd (TAR RNA [1]; CD50 normalized to the reported conditions (Calnan et al., 1991 b), read-out: apparent Kd): ~0.02 µM
3 | COC1OC(CNC(=O)C(N)CCCNC(=N)N)C(O)C(O)C1O [RMMP, Methyl 6-deoxy6-(N-L-argininamido)-α-D-mannopyranoside] | 310 | ~160 | 1800 | –
4 | CO[C@H]1O[C@H](CC#N)[C@@H](O)[C@H](O)[C@@H]1O [compound 4, Methyl 6-deoxy-6-cyano-α-D-mannopyranoside] | 1200 | – | 46000 | –
5 | CO[C@H]1O[C@H](CN)[C@@H](O)[C@H](O)[C@@H]1O [compound 7, Methyl 6-deoxy-6-amino-α-D-mannopyranoside] | >1500 | – | 56000 | –
6 | CO[C@@H]1O[C@H](C/C(N)=N/O)C(O)[C@H](O)[C@@H]1O (stereo partly drawn) [compound 9, Methyl 6-deoxy-α-D-mannoheptopyranuronic acid amidoxime] | >1500 | – | > 50000 | –
7 | CO[C@H]1O[C@H](CNC(=N)N)[C@@H](O)[C@H](O)[C@@H]1O [compound 10, Methyl 6-deoxy-6-guanidino-α-D-mannopyranoside] | 650 | ~1000 | 9000 | –
8 | CO[C@@H]1O[C@H](CNC(C)=N)C(O)[C@H](O)[C@@H]1O (stereo partly drawn) [compound 11, Methyl 6-deoxy-6-(N-acetamidino)-α-D-mannopyranoside] | 730 | ~1000 | 11000 | –
9 | Dextran sulfate [reference compound] | – | – | – | binding of HIV-1 NL4-3 to MT-4 cells (HIV-1 NL4-3): active
